Test results published in patent US20260234188A1, “CHEMOKINE-BINDING PEPTIDES” (Oxford University Innovation Limited, priority 2022, published 2026).
Ends that are not written are not given here. Peptide text beside a SMILES is read from it.

Assays:
CCL21 = target: T1, CCL21 (Homo sapiens, UniProt O00585); assay: CCL21-induced cell migration assay; format: cell-based; conditions: HD2 mutant peptides 10 μM, chemokine at EC80
T1 sequence (O00585 24-134): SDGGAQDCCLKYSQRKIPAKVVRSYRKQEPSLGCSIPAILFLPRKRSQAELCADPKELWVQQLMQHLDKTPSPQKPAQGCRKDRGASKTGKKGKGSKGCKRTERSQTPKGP
Protocol: (§1) FIGS. 24 and 25. Effect of exemplar mutant HD2 peptides on chemotaxis. Box-whisker plots showing the effect of the exemplar mutant HD2 peptides on cell migration induced by indicated human chemokines. All experiments were performed as at least three technical and between one to three biological replicates, and individual data points are indicated. […] Chemokine and cell type names are indicated. HD2SCR is a scrambled version of HD2 used as negative control. All peptides were at 10 μM final concentration and chemokines at EC80 doses. Statistically significant differences (compared to control, coloured blue), using Dunnett's test with correction for multiple comparisons, are indicated by asterisks: ****=P≤0.0001, ***=P≤0.001, **=P≤0.01, *=P≤0.05.
The J:CXCR1 cell line was generated by transfecting Jurkat cells by electroporation with PvuI-linearized plasmid D1398 and selecting with blasticidin (Sigma-Aldrich, Cat #203350, […]). […] J:CXCR1 cells were cultured in RPMI-1640 media (Gibco), supplemented with 10% FBS and 5 mM L-Glutamine with blasticidin. For J:CXCR1 migration assays, 300,000 cells/well were added to the top chamber of a 3 μm Transwell insert (Corning) in 50 μL of migration media (RPMI-1640, 0.5% FBS, 4 mM L-Glutamine, 0.05% DMSO). The bottom chamber contained 150 μL of chemokine, with or without peptide. Cells were migrated at 37° C. in 5% CO2 for 4 hours. The plate was incubated on a shaking platform for 10 minutes, 800 rpm, at 37° C., and 150 μL from the bottom of the plate transferred into a U-bottom plate containing 50 μL of migration media. Cell counts were determined by Attune NxT Flow Cytometer Plate Reader (ThermoFisher), based on cell size parameters FSC-H/SSC-H. Experiments were performed in 3 technical and 3 biological replicates. THP-1 migration assays were carried out using methods known in the art. Activated T-cell assays were carried out using methods known in the art, with the following modifications in the isolation process. Peripheral blood cells were obtained from leucocyte cones (NHS Blood Transfusion Services), following which, T-cells were isolated using two rounds of human CD8+ T-cell isolation kit (480011, BioLegend). At day 10 after activation, T-cells were frozen at 20 E6 cells/ml in TexMACS medium supplemented with 10% DMSO (D2650, Sigma) in liquid nitrogen. Prior to use, activated T-cells were recovered for 24 hours in TexMACs medium at 0.3 E6 cells/ml and incubated at 37° C. in 5% CO2. Chemokine sources are described in Supplementary information Table 3. Statistical significances between control experimental groups was evaluated using Dunnett's test. IC50 experiments were performed at the EC80 dose of chemokine. EC80 was calculated by fitting a chemokine dose-response curve with 3 parameters (fixing the top to 100%). IC50 was calculated by fitting an inhibitor response curve with 4 parameters.
Migration assays using THP1, activated T-cell (ATC) and J:CXCR1 (Jurkat cells stably transfected with CXCR1 receptor) were performed as described previously. IC50 experiments were performed at the EC80 dose of chemokine. EC80 was calculated by fitting a chemokine dose-response curve with 3 parameters (fixing the top to 100%). IC50 was calculated by fitting an inhibitor response curve with 4 parameters. R-packages used were ggupset_0.3.0, DescTools_0.99.44, and drc_3.0-1.

CCL14 = target: T2, CCL14 (Homo sapiens, UniProt Q16627); assay: CCL14-induced cell migration assay; format: cell-based; conditions: HD2 mutant peptides 10 μM, chemokine at EC80
T2 sequence (Q16627 20-93): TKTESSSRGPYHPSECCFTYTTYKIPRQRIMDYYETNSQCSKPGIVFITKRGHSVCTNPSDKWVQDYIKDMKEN
Protocol: as §1, with “Statistically significant differences (compared to control, coloured blue), using Dunnett's test with correction for multiple comparisons, are indicated by asterisks: ****=P≤0.0001, ***=P≤0.001, **=P≤0.01, *=P≤0.05.” left out
The J:CXCR1 cell line was generated by transfecting Jurkat cells by electroporation with PvuI-linearized plasmid D1398 and selecting with blasticidin (Sigma-Aldrich, Cat #203350, 5 g/mL). […] Cell counts were determined by Attune NxT Flow Cytometer Plate Reader (ThermoFisher), based on cell size parameters FSC-H/SSC-H. Experiments were performed in 3 technical and 3 biological replicates. […] Statistical significances between control experimental groups was evaluated using Dunnett's test. […] EC80 was calculated by fitting a chemokine dose-response curve with 3 parameters (fixing the top to 100%). IC50 was calculated by fitting an inhibitor response curve with 4 parameters. […]

Row | Molecule | chemotaxis compared with the parental HD2 peptide (CCL21) | chemotaxis compared with the parental HD2 peptide (CCL14)
1 | CC(C)C[C@H](NC(=O)[C@@H]1CCCN1C(=O)[C@H](C)NC(=O)[C@H](Cc1ccc(O)cc1)NC(=O)[C@H](C)NC(=O)[C@@H](NC(=O)[C@H](Cc1ccc(O)cc1)NC(=O)[C@H](CC(=O)O)NC(=O)[C@H](CC(=O)O)NC(=O)[C@H](CCC(=O)O)NC(=O)[C@@H](N)CCC(=O)O)[C@@H](C)O)C(=O)N[C@H](C(=O)N[C@@H](CS)C(=O)N[C@@H](Cc1ccc(O)cc1)C(=O)N[C@@H](Cc1ccccc1)C(=O)N[C@@H](CS)C(N)=O)[C@@H](C)O [HD2_C16, EEDDYTAYAPLTCYFC] (H-EEDDYTAYAPLTCYFC-NH2; N-terminus assumed) | significant reduction in chemotaxis | significant reduction in chemotaxis
2 | EEDDWTAYAPLTCYFT-NH2 [HD2_W5, EEDDWTAYAPLTCYFT] | significant reduction in chemotaxis | 
3 | EEDDYTAYWPLTCYFT [A9W] | significant reduction in chemotaxis | 
4 | EEDDYWAYAPLTCYFT [HD2_W6] | significant reduction in chemotaxis | 
